Source: publication PMC2864539 (Cancer research, 2010)

What was measured:
ovine COX-1 = target: T1, ovine COX-1 (Ovis aries, UniProt P05979); test: [[…]-14C]arachidonic acid conversion, radio-TLC; format: biochemical
T1 sequence (P05979 25-600): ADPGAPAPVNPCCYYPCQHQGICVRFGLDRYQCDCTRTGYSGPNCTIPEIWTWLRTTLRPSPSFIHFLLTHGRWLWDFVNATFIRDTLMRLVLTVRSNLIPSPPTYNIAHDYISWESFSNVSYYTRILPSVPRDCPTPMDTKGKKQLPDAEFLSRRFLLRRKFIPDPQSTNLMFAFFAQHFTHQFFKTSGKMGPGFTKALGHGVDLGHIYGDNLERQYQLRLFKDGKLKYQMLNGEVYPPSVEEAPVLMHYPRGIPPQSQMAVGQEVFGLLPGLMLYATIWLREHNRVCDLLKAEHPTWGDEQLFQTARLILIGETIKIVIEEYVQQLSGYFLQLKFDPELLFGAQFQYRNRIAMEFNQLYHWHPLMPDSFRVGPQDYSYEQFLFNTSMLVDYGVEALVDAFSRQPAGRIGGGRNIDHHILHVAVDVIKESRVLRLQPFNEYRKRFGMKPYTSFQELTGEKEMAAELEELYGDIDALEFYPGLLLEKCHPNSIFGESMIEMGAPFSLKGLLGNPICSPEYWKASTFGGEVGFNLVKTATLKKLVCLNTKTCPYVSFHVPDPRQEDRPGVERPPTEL

human COX-2 = target: T2, human COX-2 (Homo sapiens, UniProt P35354); test: [[…]-14C]arachidonic acid conversion, radio-TLC; format: biochemical
T2 sequence (P35354 18-604): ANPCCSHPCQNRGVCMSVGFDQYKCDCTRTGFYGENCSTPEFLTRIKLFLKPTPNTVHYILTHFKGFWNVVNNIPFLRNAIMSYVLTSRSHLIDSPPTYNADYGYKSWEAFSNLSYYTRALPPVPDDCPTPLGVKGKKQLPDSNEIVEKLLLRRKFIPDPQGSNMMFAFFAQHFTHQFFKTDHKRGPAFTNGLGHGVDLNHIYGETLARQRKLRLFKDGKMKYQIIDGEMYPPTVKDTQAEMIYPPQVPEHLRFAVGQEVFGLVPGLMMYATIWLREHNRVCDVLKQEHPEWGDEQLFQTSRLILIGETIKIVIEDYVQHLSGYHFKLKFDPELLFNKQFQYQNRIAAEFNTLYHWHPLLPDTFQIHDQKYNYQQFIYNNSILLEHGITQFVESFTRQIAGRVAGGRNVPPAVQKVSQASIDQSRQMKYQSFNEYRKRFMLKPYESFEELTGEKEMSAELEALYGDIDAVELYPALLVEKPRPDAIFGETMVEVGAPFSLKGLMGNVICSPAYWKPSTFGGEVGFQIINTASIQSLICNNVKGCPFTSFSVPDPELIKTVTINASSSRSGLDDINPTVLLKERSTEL

In the case of `COc1ccc2c(c1)c(CC(=O)NCCNC(=O)c1ccc(C(=O)[O-])c(C3=c4cc5c6c(c4Oc4c3cc3c7c4CCCN7CCC3)CCC[N+]=6CCC5)c1)c(C)n2C(=O)c1ccc(Cl)cc1` [compound 3], the IC50 (ovine COX-1) is reported as > 66 µM and the IC50 (human COX-2) is reported as > 4 µM.
